Key:
[1] = Folic acid release from PLG(A) microspheres in methylcellulose gel; format: physicochemical
Method: Folic acid was encapsulated in polylactic-colycolide (PLG) microspheres that were visualized using scanning electron microscopy (SEM) (A). These microspheres were embedded within a methylcellulose gel to enable oral applications and visualized using SEM (B). Controlled release of folic acid of a protracted time course was examined using spectroscopy and cumulative release was calculated (C).
In order to deliver the Folic acid treatment, a controlled release system with polylactic glycolic acid (PLGA) and methylcellulose gel were used (FIG. 36). Release kinetics of folic acid increased over time and noted to continue until day 21. The amount of the released Folic acid was approximate 400 μg/ml on day 1 and reached 800 μg/ml on day 21 due to bulk deterioration of polymer.
Microsphere Fabrication. The folic acid was encapsulated in poly (lactide-co-glycolide) (PLG) (8515DLG7E, Lakeshore Biomaterials, Birmingham, AL, USA) microspheres using double emulsion solvent evaporation method. Briefly, a 100 μL quantity of proteins dissolved in molecular-grade water was pipetted into 1 mL of 5% PLG in ethyl acetate (Sigma-Aldrich Corp., St. Louis, MO, USA) and sonicated (Sonics and Materials Inc., Newtown, CT, USA) on 50% magnitude for 1 min. A second emulsion composed of 1% […] (PVA) (Sigma-Aldrich) and 7% ethyl acetate was then added and vortexed for 15 sec. The solution was then added to a 1% PVA solution with continuous stirring for 3 hrs at room temperature and filtered through a 0.2-μm filter (Nalgene, ThermoFisher Scientific, Rockville, MD, USA), collected by centrifugation at 2,000 rpm for 10 min (Eppendorf, Hamburg, Germany), freeze-dried for 16 hrs (Labconco, Kansas City, MO, USA), and stored at −20° C. The microspheres fabricated with this technique were between 2 and 200 microns.
Gel preparation and folic acid release study. Folic acid (100 μg/ml) (Sigma-Aldrich, St Louis, MO) was encapsulated in PLG microspheres as described above. The resulting lyophilized powder was formulated into an oral gel containing 20 mg of folic acid microspheres mixed with 5% of methylcellulose (Sigma-Aldrich, St Louis, MO) in 330 μl of phosphate buffer saline. The gels were prepared fresh daily before applications and repeated until end of the study period (14 days).

[2] = system: TNF-α in Oral Keratinocytes; test: TNF-α ELISA in oral keratinocytes; format: cell-based, human; conditions: for amount of secreted TNF-α by ELISA: LPS (10 μg/ml), FA (10 μg/ml), 24 hours, p<0.05
Method: Cell Culture. Normal human oral keratinocytes (NOKSI) and fibroblast (HOF) cells were maintained in Dulbecco […] Eagle's medium (Sigma-Aldrich, St. Louis, MO, USA) supplemented with 10% fetal bovine serum (Atlas Bio-logicals, Fort Collins, CO, USA) and 100 units/mL penicillin and 100 μg/mL streptomycin (LifeTechnologies, Carlsbad, CA, USA). Cells were grown in incubator at 37° C. in a humidified chamber with 5% CO2.
Drugs treatment in cell culture. The cells were treated alone or with different combination of lipopolysaccharide, cyclosporine, phenytoin, and folic acid. All of them were purchased from Sigma-Aldrich (St. Louis, MO, USA). Each of them were used from 0 μg/ml to 40 μg/ml and the optimum concentration were found 10 μg/ml.
Enzyme linked immunosorbent assay (ELISA). ELISA was conducted with a mouse TNF-α ELISA Kit (PeproTech, USA) and TGF-β Emax ImmunoAssay System (Promega USA) to detect the TNF-α and TGF-β respectively. After normalization of the total cells or tissue protein lysates, 20 μg protein of each sample was used for the detection of TNF-α or TGF-β. ELISA was performed according to the manufacturers' instructions. For TNF-α, 100 ng/100 μl of capture antibody was added to each well of 96 well assay plate and incubated for overnight at room temperature. […] Optical absorbing values were read at 405 and 450 nm and corrected by 650 nm. […] TMB One Solution was added for 15 minutes and the reaction were stopped using 100 μl of 1N hydrochloric acid and the absorbance at 450 nm were recorded on a plate reader. Data were analyzed using excel software. […]
Folic acid reduces TNF-α oral keratinocytes. […] After adhesion, the cells were treated with different concentration of folic acid (2.5 μg/ml-40 μg/ml) and amount of TNF-α was measured by ELISA (p<0.05).
Folic acid reduces TNF-α in Oral Keratinocytes on LPS stimulation. […] The amount of secreted TNF-α was determined by ELISA (p<0.05).
Oral Keratinocytes were seeded and treated with LPS (10 μg/ml), Phe (10 μg/ml), and FA (10 μg/ml) for 24 hours. The amount of secreted TNF-α was determined by ELISA. […]

## Nc1nc2ncc(CNc3ccc(C(=O)N[C@@H](CCC(=O)O)C(=O)O)cc3)nc2c(=O)[nH]1 [folic acid]
[1]; FIG. 20
  release of folic acid from polymeric microspheres: sustained release
[1]; controlled release system with PLGA and methylcellulose gel
  release of folic acid noted to continue until: 21 days
[1]; controlled release system with PLGA and methylcellulose gel, day 1
  amount of the released Folic acid: ~400 µg/mL
[1]; controlled release system with PLGA and methylcellulose gel, day 21
  amount of the released Folic acid: 800 µg/mL
[2]; CSA (10 μg/ml)
  amount of secreted TNF-α by ELISA: reduces TNF-α
[2]; Phe (10 μg/ml)
  amount of secreted TNF-α by ELISA: inhibits Phenytoin-induced TNF-α
[2]; folic acid […]-40 μg/ml alone, p<0.05 vs non-treated
  amount of TNF-α by ELISA: reduces TNF-α

— patent publication US20260000496A1, “MATERIALS AND METHODS FOR DRUG-INDUCED GINGIVAL OVERGROWTH” (Optimed Technology, Inc., priority 2019, published 2026)
